Results reported in US12692262B2, “Substituted ureas as orexin receptor agonists” (Merck Sharp & Dohme LLC, priority 2020, dated 2026).

Target: T1, human OX2R (Homo sapiens, UniProt O43614)
T1 construct: expressed in transfected cells; host or cells: CHO (Chinese hamster ovary) cells grown under G418 selection
T1 sequence (O43614 1-444): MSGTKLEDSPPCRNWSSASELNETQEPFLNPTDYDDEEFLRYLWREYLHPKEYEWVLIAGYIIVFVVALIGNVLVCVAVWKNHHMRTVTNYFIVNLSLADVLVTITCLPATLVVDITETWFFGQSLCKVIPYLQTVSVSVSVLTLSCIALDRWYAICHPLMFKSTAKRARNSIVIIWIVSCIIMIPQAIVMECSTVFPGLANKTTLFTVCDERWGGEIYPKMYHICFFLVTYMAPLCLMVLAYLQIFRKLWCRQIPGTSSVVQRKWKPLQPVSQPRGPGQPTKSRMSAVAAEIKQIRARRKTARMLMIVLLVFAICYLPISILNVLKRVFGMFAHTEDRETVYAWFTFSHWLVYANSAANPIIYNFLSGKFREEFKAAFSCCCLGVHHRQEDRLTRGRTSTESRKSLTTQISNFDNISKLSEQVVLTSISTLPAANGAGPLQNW
Assay: IPOne (IP-1 accumulation) assay in CHO cells expressing human OX2R
Assay type: cell-based
Conditions: for EC50: CHO cells expressing human OX2R, IP-One assay, 2 h incubation, four parameter logistic fit, read-out: OX2R Potency, EC50; for % of maximum agonist effect (relative to Orexin A): percent effect vs mean max effect of a reference compound at 1 uM (100% activity vs Orexin A), human OX2R
Outline: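 CHO cells stably expressing human OX2R, grown in Iscove's modified DMEM with 10% FBS; agonist-driven IP-1 accumulation via the Gαq pathway measured by HTRF (D2/AB-cryptate detection after lysis). EC50 taken as the inflection point of a four-parameter logistic fit.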

`CCN(C(=O)N[C@@H](CCC(F)(F)F)C(F)(F)F)C(c1cc(-c2cc(OC)c3nc(C#N)cn3c2)c(OC)cn1)C(F)(F)F` (stereo partly drawn) [Example 10-7, 1-(1-(4-(2-cyano-8-methoxyimidazo[1,2-a]pyridin-6-yl)-5-methoxypyridin-2-yl)-2,2,2-trifluoroethyl)-1-ethyl-3-((S)-1,1,1,5,5,5-hexafluoropentan-2-yl)urea] was tested, and the EC50 was 1.5 nM and the “% of maximum agonist effect (relative to Orexin A)” value was 102.7%.

`CCN(C(=O)N[C@@H](CCC(F)(F)F)C(F)(F)F)[C@H](C)c1cc(-c2cc(OC)n3nccc3c2)c(OC)cn1` [Example 11-5, 1-ethyl-3-((S)-1,1,1,5,5,5-hexafluoropentan-2-yl)-1-((R)-1-(5-methoxy-4-(7-methoxypyrazolo[1,5-a]pyridin-5-yl)pyridin-2-yl)ethyl)urea] was tested, and the EC50 was 0.6 nM and the “% of maximum agonist effect (relative to Orexin A)” value was 100.1%.

For `CCN(C(=O)N[C@@H](CCC(F)(F)F)C(F)(F)F)C(C)c1ccnc(-c2cn3ccnc3c(OC)n2)c1` (stereo partly drawn) [Example 13-1, 1-ethyl-3-((S)-1,1,1,5,5,5-hexafluoropentan-2-yl)-1-(1-(2-(8-methoxyimidazo[1,2-a]pyrazin-6-yl)pyridin-4-yl)ethyl)urea], the EC50 was 11.7 nM and the “% of maximum agonist effect (relative to Orexin A)” value was 101.4%.

With `CCN(C(=O)NC(C1CCC1)C(F)(F)F)[C@@H](c1cc(-c2cn3ccnc3c(OC)n2)c(OC)cn1)C(F)(F)F` (stereo partly drawn) [Example 2-5, 3-(1-cyclobutyl-2,2,2-trifluoroethyl)-1-ethyl-1-((S)-2,2,2-trifluoro-1-(5-methoxy-4-(8-methoxyimidazo[1,2-a]pyrazin-6-yl)pyridin-2-yl)ethyl)urea] the EC50 was 10.7 nM and the “% of maximum agonist effect (relative to Orexin A)” value was 100.7%.

With `CCN(C(=O)NC(CCC(F)(F)F)COC)[C@@H](c1cc(-c2cn3cc(C)nc3c(OC)n2)c(OC)cn1)C(F)(F)F` (stereo partly drawn) [Example 2-49, 1-ethyl-1-((S)-2,2,2-trifluoro-1-(5-methoxy-4-(8-methoxy-2-methylimidazo[1,2-a]pyrazin-6-yl)pyridin-2-yl)ethyl)-3-(5,5,5-trifluoro-1-methoxypentan-2-yl)urea] the EC50 was 99.4 nM and the “% of maximum agonist effect (relative to Orexin A)” value was 100.1%.

For `CCN(C(=O)N[C@@H](CCC(F)(F)F)C(F)(F)F)C(C)c1cnnc(-c2cn3ccnc3c(OC)n2)c1` (stereo partly drawn) [Example 2-64, 1-ethyl-3-((S)-1,1,1,5,5,5-hexafluoropentan-2-yl)-1-(1-(6-(8-methoxyimidazo[1,2-a]pyrazin-6-yl)pyridazin-4-yl)ethyl)urea], the EC50 was 2870 nM and the “% of maximum agonist effect (relative to Orexin A)” value was 81.2%.

With `CCN(C(=O)NC(Cn1nccn1)C(F)(F)F)[C@H](C)c1cccc(-c2cn3ccnc3c(OC)n2)c1` (stereo partly drawn) [Example 1-16, 1-ethyl-1-((R)-1-(3-(8-methoxyimidazo[1,2-a]pyrazin-6-yl)phenyl)ethyl)-3-(1,1,1-trifluoro-3-(2H-1,2,3-triazol-2-yl)propan-2-yl)urea] the EC50 was 2.8 nM and the “% of maximum agonist effect (relative to Orexin A)” value was 100.1%.

`COc1nc(-c2cccc(C(C)N(CC(F)F)C(=O)N[C@@H](CCC(F)(F)F)C(F)(F)F)c2)cn2ccnc12` (stereo partly drawn) [Example 2-61, 1-(2,2-difluoroethyl)-3-((S)-1,1,1,5,5,5-hexafluoropentan-2-yl)-1-(1-(3-(8-methoxyimidazo[1,2-a]pyrazin-6-yl)phenyl)ethyl)urea] was tested, and the EC50 was 5.8 nM and the “% of maximum agonist effect (relative to Orexin A)” value was 99.5%.

With `CCC(CCC(F)(F)F)NC(=O)N(CC)[C@H](C)c1cccc(-c2cn3ccnc3cc2OC)c1` (stereo partly drawn) [Example 7-2, 1-ethyl-1-((R)-1-(3-(7-methoxyimidazo[1,2-a]pyridin-6-yl)phenyl)ethyl)-3-(6,6,6-trifluorohexan-3-yl)urea] the EC50 was 396 nM and the “% of maximum agonist effect (relative to Orexin A)” value was 100.4%.

For `CCN(C(=O)N[C@@H](CCC(F)F)C1CC1)[C@@H](c1cc(-c2cn3cc(C)nc3c(OC)n2)c(OC)cn1)C(F)(F)F` [Example 6-7, 3-((S)-1-cyclopropyl-4,4-difluorobutyl)-1-ethyl-1-((S)-2,2,2-trifluoro-1-(5-methoxy-4-(8-methoxy-2-methylimidazo[1,2-a]pyrazin-6-yl)pyridin-2-yl)ethyl)urea], the EC50 was 8.5 nM and the “% of maximum agonist effect (relative to Orexin A)” value was 100.9%.

In the case of `CCN(C(=O)NC(CCC1CC1)C(F)(F)F)[C@H](C)c1cccc(-c2cn3ccnc3c(OC)n2)c1` (stereo partly drawn) [Example 3-6, 3-(4-cyclopropyl-1,1,1-trifluorobutan-2-yl)-1-ethyl-1-((R)-1-(3-(8-methoxyimidazo[1,2-a]pyrazin-6-yl)phenyl)ethyl)urea], the EC50 is reported as 2.6 nM and the “% of maximum agonist effect (relative to Orexin A)” value is reported as 99.7%.

For `CCN(C(=O)NCC(N(C)C)C(F)(F)F)[C@H](C)c1cccc(-c2cc(OC)c3nccn3c2)c1` (stereo partly drawn) [Example 1-7, 3-(2-(dimethylamino)-3,3,3-trifluoropropyl)-1-ethyl-1-((R)-1-(3-(8-methoxyimidazo[1,2-a]pyridin-6-yl)phenyl)ethyl)urea], the EC50 was 17.5 nM and the “% of maximum agonist effect (relative to Orexin A)” value was 97.3%.

For `CCN(C(=O)N[C@@H](CCCF)C(F)(F)F)[C@@H](c1cc(-c2cn3cc(C)nc3c(OC)n2)c(OC)cn1)C(F)(F)F` [Example 3-2, 1-ethyl-3-((S)-1,1,1,5-tetrafluoropentan-2-yl)-1-((S)-2,2,2-trifluoro-1-(5-methoxy-4-(8-methoxy-2-methylimidazo[1,2-a]pyrazin-6-yl)pyridin-2-yl)ethyl)urea], the EC50 was 3.3 nM and the “% of maximum agonist effect (relative to Orexin A)” value was 102.4%.

In the case of `CCN(C(=O)N[C@@H](CCC(F)(F)F)C(F)(F)F)C(c1cc(-c2cn3ccnc3c(OC)n2)c2nccn2c1)C(F)(F)F` (stereo partly drawn) [Example 2-14, 1-ethyl-3-((S)-1,1,1,5,5,5-hexafluoropentan-2-yl)-1-(2,2,2-trifluoro-1-(8-(8-methoxyimidazo[1,2-a]pyrazin-6-yl)imidazo[1,2-a]pyridin-6-yl)ethyl)urea], the EC50 is reported as 8.7 nM and the “% of maximum agonist effect (relative to Orexin A)” value is reported as 100.1%.

For `CCN(C(=O)N[C@@H](CCC(F)(F)F)C(F)(F)F)[C@H](C)c1cccc(-c2cc(OC)c3nc(Cl)cn3c2)c1` [Example 8-10, 1-((R)-1-(3-(2-chloro-8-methoxyimidazo[1,2-a]pyridin-6-yl)phenyl)ethyl)-1-ethyl-3-((S)-1,1,1,5,5,5-hexafluoropentan-2-yl)urea], the EC50 was 1.5 nM and the “% of maximum agonist effect (relative to Orexin A)” value was 99.6%.

In the case of `CCN(C(=O)N[C@@H]1C[C@@]1(C)C(F)(F)F)[C@@H](c1cc(-c2cn3ccnc3c(OC)n2)c(OC)cn1)C(F)(F)F` [Example 2-27, 1-ethyl-3-((1R,2R)-2-methyl-2-(trifluoromethyl)-cyclopropyl)-1-((S)-2,2,2-trifluoro-1-(5-methoxy-4-(8-methoxyimidazo[1,2-a]pyrazin-6-yl)pyridin-2-yl)ethyl)urea], the EC50 is reported as 9.4 nM and the “% of maximum agonist effect (relative to Orexin A)” value is reported as 101.1%.

With `CCN(C(=O)NC(CN(C)C)C(F)(F)F)[C@H](C)c1cccc(-c2cc(OC)n3nccc3c2)c1` (stereo partly drawn) [Example 1-13, 3-(3-(dimethylamino)-1,1,1-trifluoropropan-2-yl)-1-ethyl-1-((R)-1-(3-(7-methoxypyrazolo[1,5-a]pyridin-5-yl)phenyl)ethyl)urea] the EC50 was 146 nM and the “% of maximum agonist effect (relative to Orexin A)” value was 80.7%.

`CCN(C(=O)NC1CCC(C(F)(F)F)N(C)C1)[C@@H](c1cccc(-c2cn3ccnc3c(OC)n2)c1)C(F)(F)F` (stereo partly drawn) [Example 2-67, 1-ethyl-3-(1-methyl-6-(trifluoromethyl)piperidin-3-yl)-1-((S)-2,2,2-trifluoro-1-(3-(8-methoxyimidazo[1,2-a]pyrazin-6-yl)phenyl)ethyl)urea] was tested, and the EC50 was 7.7 nM and the “% of maximum agonist effect (relative to Orexin A)” value was 98.7%.

For `CCN(C(=O)N[C@@H](CCC(F)(F)F)C(F)(F)F)[C@H](C)c1cnc(O)c(-c2cc(OC)n3nccc3c2)c1` [Example 30, 1-ethyl-3-((S)-1,1,1,5,5,5-hexafluoropentan-2-yl)-1-((R)-1-(6-hydroxy-5-(7-methoxypyrazolo[1,5-a]pyridin-5-yl)pyridin-3-yl)ethyl)urea], the EC50 was 4730 nM and the “% of maximum agonist effect (relative to Orexin A)” value was 97.0%.

In the case of `CCN(C(=O)NC(C1CC1)C(F)(F)F)C(c1cc(-c2cn3ccnc3c(OC)n2)c(OC)cn1)C(F)(F)F` (centres unmarked) [Example 2-6, 3-(1-cyclopropyl-2,2,2-trifluoroethyl)-1-ethyl-1-(2,2,2-trifluoro-1-(5-methoxy-4-(8-methoxyimidazo[1,2-a]pyrazin-6-yl)pyridin-2-yl)ethyl)urea], the EC50 is reported as 12.1 nM and the “% of maximum agonist effect (relative to Orexin A)” value is reported as 101.5%.

`CCN(C(=O)N[C@@H](CCC(F)(F)F)C(F)(F)F)[C@H](C)c1cc(-c2cn3ccnc3c(OC)n2)c(OC)cn1` [Example 12-1, 1-ethyl-3-((S)-1,1,1,5,5,5-hexafluoropentan-2-yl)-1-((R)-1-(5-methoxy-4-(8-methoxyimidazo[1,2-a]pyrazin-6-yl)pyridin-2-yl)ethyl)urea] was tested, and the EC50 was 0.6 nM and the “% of maximum agonist effect (relative to Orexin A)” value was 100.1%.

With `CCN(C(=O)N[C@@H](CCC(F)(F)F)C(F)(F)F)[C@@H](c1cc(-c2cc(OC)c3nccn3c2)c(OC)cn1)C(F)(F)F` [Example 9-1, 1-ethyl-3-((S)-1,1,1,5,5,5-hexafluoropentan-2-yl)-1-((S)-2,2,2-trifluoro-1-(5-methoxy-4-(8-methoxyimidazo[1,2-a]pyridin-6-yl)pyridin-2-yl)ethyl)urea] the EC50 was 0.9 nM and the “% of maximum agonist effect (relative to Orexin A)” value was 99.7%.
